Laboratory results from patent publication US20220323411A1, “COMPOSITIONS FOR THE TREATMENT OF SOLID TUMORS” (Raziel Therapeutics Ltd., priority 2019, published 2022).
Marks after values point to notes of the source that are not given here.

Key:
A549 cells [1] = test: Xenograft Study 2: A549 subcutaneous tumors in nude mice, intratumoral injection; format: in vivo
Procedure: A549 cells were injected subcutaneously to nude mice and allowed to grow to an estimated tumor volume of about 300 mm^3 as determined by caliper. The mice were divided into three groups (N=10 per group), dosed three times via intratumoral injection with either a vehicle (comprising water for injection, benzyl alcohol, propylene glycol, and Tween-80) or with 5 mg of […])-N,N,N-trimethylpentan-1-aminium chloride, or not injected at all, according to the experimental design shown in Table 3 below:
For three weeks post-injection, tumor size was determined by caliper and tumor volume was calculated. Median tumor volumes for the various cohorts are summarized in Table 4 below and graphically in FIG. 3 (arrows indicate treatment days), while the mice's change in body weight is summarized in FIG. 4.

A549 cells [2] = test: Xenograft Study 1: A549 subcutaneous tumors in nude mice, intratumoral injection; format: in vivo; details: for Tumor volume 3 weeks after injection (mm^3 ± S.E.M.): first dose day 25, double dose day 32, mean, N=10, initial volume 496; for Reduction in tumor volume vs. vehicle (%): 3 weeks after injection
Procedure: A549 cells were injected subcutaneously to nude mice and allowed to grow to an estimated tumor volume of about 500 mm^3 as determined by caliper. The mice were divided into four groups (N=10 per group), dosed twice via intratumoral injection with either a vehicle (comprising water for injection, benzyl alcohol, propylene glycol, and Tween-80) or with 1 mg, 2.5 mg, or 5 mg of 5-(3, 6-dibromo-9H-carbazol-9-yl)-N,N,N-trimethylpentan-1-aminium chloride according to the experimental design shown in Table 1 below:
For three weeks post-injection, tumor size was determined by caliper and tumor volume was calculated. Mean tumor volumes for the various cohorts are summarized in Table 2 below and graphically in FIG. 1 (arrows indicate treatment days), while the mice's change in body weight is summarized in FIG. 2.

[3] = 5 mg intratumoral, dosed three times

With C[N+](C)(C)CCCCCn1c2ccc(Br)cc2c2cc(Br)ccc21 [Test Compound, 5-(3,6-dibromo-9H-carbazol-9-yl)-N,N,N-trimethylpentan-1-aminium chloride] the “Effect on mouse body weight” value (A549 cells [1]; [3]) was “did not affect mouse body weight”, the “Effect on tumor size” value (A549 cells [1]; [3]) was “significantly reduced tumor size” and the “Reduction in tumor volume vs. non-injected group (%)” value (A549 cells [1]; 5 mg/mouse intratumoral once a week for 3 weeks, P-value vs. non-injected group 0.02) was 46* %. The Tumor volume 3 weeks after injection (median) (A549 cells [1]; 5 mg/mouse intratumoral once a week for 3 weeks, median, N=10, initial volume 287) was 648 mm³, the “Tumor volume 3 weeks after injection (mm^3 ± S.E.M.)” value (A549 cells [2]; 1 mg/mouse intratumoral) was 1753 (±80) mm^3 and the “Reduction in tumor volume vs. vehicle (%)” value (A549 cells [2]; 1 mg/mouse intratumoral, P-value vs. vehicle 0.86) was 7.7%. The “Tumor volume 3 weeks after injection (mm^3 ± S.E.M.)” value (A549 cells [2]; 2.5 mg/mouse intratumoral) was 1512 (±149) mm^3, the “Reduction in tumor volume vs. vehicle (%)” value (A549 cells [2]; 2.5 mg/mouse intratumoral, P-value vs. vehicle 0.17) was 20.4% and the “Effect on mouse body weight” value (A549 cells [2]; 5 mg intratumoral, dosed twice) was “did not affect mouse body weight”. The “Effect on tumor size” value (A549 cells [2]; 5 mg intratumoral, dosed twice) was “significantly reduced tumor size”, the “Tumor volume 3 weeks after injection (mm^3 ± S.E.M.)” value (A549 cells [2]; 5 mg/mouse intratumoral) was 1309 (±229) mm^3 and the “Reduction in tumor volume vs. vehicle (%)” value (A549 cells [2]; 5 mg/mouse intratumoral, P-value vs. vehicle 0.03) was 31.1* %.
